The values that follow are results of earlier work, collected in patent publication EP4759824A1, “DANSYLAMIDE-MODIFIED COMPOUNDS TARGETING PSMA, PREPARATION METHOD THEREFOR, AND USE THEREOF” (Yantai Lannacheng Biotechnology Co., Ltd., priority 2023, dated 2025).

In the data set the test system is PSMA-positive mCRPC. The conditions noted are these: combined with SOC, mCRPC patients.

For “lutetium Lu-177 vipivotide tetraxetan [^177Lu-PSMA-617]”, the “median radiographic progression-free survival” value (SOC alone 3.4 months) is recorded as 8.7 months. For the same substance, where the note is “SOC alone 11.3 months”, the median overall survival is reported as 15.3 months.
